Laboratory results as given in PubChem BioAssay (NCI).
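Compound exposure: 48 hours, 5 concentrations, 96-well plates. TGI is the concentration that stops growth completely.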

Experiments:
Assay in all cases: NCI-60 cell line screen, 48 h
[1] = tested on: MCF7 breast
[2] = tested on: HOP-62 NSCLC
[3] = tested on: KM12 colon
[4] = tested on: HS 578T breast
[5] = tested on: RPMI-8226 leukemia
[6] = tested on: 786-0 renal
[7] = tested on: SN12C renal
[8] = tested on: MALME-3M melanoma
[9] = tested on: MDA-N
[10] = tested on: OVCAR-8 ovarian
[11] = tested on: HCT-116 colon
[12] = tested on: SW-620 colon
[13] = tested on: PC-3 prostate
[14] = tested on: EKVX NSCLC

Row | Compound | TGI [1] [µM] | TGI [2] [µM] | TGI [3] [µM] | TGI [4] [µM] | TGI [5] [µM] | TGI [6] [µM] | TGI [7] [µM] | TGI [8] [µM] | TGI [9] [µM] | TGI [10] [µM] | TGI [11] [µM] | TGI [12] [µM] | TGI [13] [µM] | TGI [14] [µM]
1 | COc1ccc(N2C(=O)C3c4[nH]c5ccccc5c4C4C(C)CCCC4C3C2=O)cc1 (configuration not stated) | > 100 | > 96.2 | > 100 | 96 | > 100 | > 63.5 | > 100 | 52.6 | 18.3 | > 100 | > 100 | > 100 | > 100 | > 100
2 | COC(=O)C1=C(C(=O)OC)C2(C)CCC(=O)C1O2 (configuration not stated) | > 10 | > 10 | > 10 | > 10 | > 10 | > 10 | > 10 | > 10 | > 10 | > 10 | > 10 | > 10 | > 10 | > 10
3 | O=C(/C=C1\C[C@H]2C=Nc3ccccc3C(=O)N2C1)NCCCCCNC(=O)/C=C1\C[C@H]2C=Nc3ccccc3C(=O)N2C1 | 33.6 | 31.8 | 41 | > 67.6 | > 72.7 | 3.42 | 10.6 | 7.09 | 21.5 | 7.31 | 20.1 | 5.93 | 27.1 | 38.5
4 | Nc1n[nH]c2ccccc12 | > 100 | > 100 | > 100 | > 100 | > 100 | > 100 | > 100 | > 100 | > 100 | > 100 | > 100 | > 100 | > 100 | > 100
5 | COC(=O)C1=C(C)N2[C@H](C(=O)O)CS[C@@]2(C)[C@H](C(=O)OC)[C@H]1c1cccc([N+](=O)[O-])c1 | > 100 | > 100 | > 100 | > 100 | > 100 | > 100 | > 100 | > 100 | > 100 | > 100 | > 100 | > 100 | > 100 | > 100
6 | COC1OC2COC(C)(C)OC2C2OC(C)(C)OC12 (configuration not stated) | > 100 | 61.1 | > 100 | 50 | 93.6 | 52 | 67.1 | > 100 | > 100 | > 100 | > 100 | > 100 | > 100 | > 100
7 | CCOC(=O)c1ccc(C(=O)/C(C(=O)OC(C)(C)C)=C2\CCCN2C)n1C | > 100 | > 100 | > 100 | > 100 | > 100 | > 100 | > 100 | > 100 | > 100 | > 100 | > 100 | > 100 | > 100 | > 100
8 | CC1OC(n2cc(F)c(=O)[nH]c2=O)C(O[Si](C)(C)C(C)(C)C)C1O[Si](C)(C)C(C)(C)C (configuration not stated) | 35.7 | 43.7 | 26.1 | 40.7 | 35.4 | 27.7 | 24.9 | 28.5 | 29.3 | 28.9 | 26.8 | 28.6 | 27.3 | 31.6
9 | CC(C)(C)c1ccc2c(c1)OCc1n[nH]c(n1)COc1cc(C(C)(C)C)ccc1OCCOCCO2 | 12.8 | 19.2 | 15.1 | 9.16 | 8.41 | 16 | 16.7 | 7.62 | 12.3 | 14.3 | 15.5 | 13.1 | 7.59 | 17.7
10 | CC[P+](C#Cc1ccccc1)(c1ccccc1)c1ccccc1 | 10.8 | 8.94 | 3.29 | 7.77 | 0.781 | 4.36 | 5.41 | 4.19 | 3.44 | 6.2 | 5.86 | 10.8 | 6.53 | 11.9
11 | O=[N+]([O-])c1ccc2nc3c(nc2c1)-c1c2ccccc2cc2cccc-3c12 | > 100 | 77.2 | > 100 | 33 | 98.8 | > 100 | > 100 | 76.5 | 47.9 | > 30.6 | > 100 | > 100 | > 66.6 | > 100
12 | O=C(CN=C(CN(c1ccccc1)c1ccccc1)Oc1c(Cl)cc(Cl)cc1Cl)n1cnc2ccccc21 | > 100 | > 100 | > 100 | > 100 | > 100 | > 100 | > 100 | > 100 | > 100 | > 100 | > 100 | > 100 | > 100 | > 100
13 | COC(=O)C(CCSC)NC(=O)CSc1nnc(COc2ccc(Cl)cc2)n1-c1ccccc1 (configuration not stated) | 41.8 | 23.8 | 34.4 | 55.6 | 34.5 | 30 | 33.1 | 37.1 | 34.1 | 36.3 | 30.7 | 49.7 | 38.4 | 75.3
14 | CC(O)(C(=O)N(O)c1ccc(Cl)cc1)c1ccc(Cl)cc1 (configuration not stated) | > 100 | 93 | > 100 | 62.4 | 37.3 | > 100 | > 100 | > 100 | > 100 | > 100 | 96.1 | > 100 | 73 | > 100
15 | O=C(O)c1cc2ccccc2c(S(=O)(=O)O)c1O | > 100 | > 100 | > 100 | > 100 | > 100 | > 100 | > 100 | > 100 | > 100 | > 100 | > 100 | > 100 | > 100 | > 100
16 | CCN(C(=O)N[C@H](C(=O)N[C@@H](C)C(=O)OC)C(C)C)c1ccccc1 | > 100 | > 100 | > 100 | > 100 | > 100 | 92.4 | > 100 | 55.9 | > 100 | 63.2 | 68.6 | > 100 | > 100 | > 100
17 | C[C@@H]1C(=O)CC2(O)[C@@]13C[C@@H](OC(=O)[C@@H]3O)[C@@H](C)[C@@]21COC1=O (some centres not stated) | > 100 | > 100 | > 100 | > 100 | > 100 | > 100 | > 100 | > 100 | > 100 | > 100 | > 100 | > 100 | > 100 | > 100
18 | CCOC(=O)Cc1nn2c(=O)cc(C)nc2s1 | > 100 | > 100 | > 100 | > 100 | > 100 | > 100 | > 100 | > 100 | > 100 | > 100 | > 100 | > 100 | > 100 | > 100
19 | CC12CCC(C/C1=N\NC(N)=O)C2(C)C (configuration not stated) | > 100 | > 100 | > 100 | > 100 | > 100 | > 100 | > 100 | > 100 | > 100 | > 100 | > 100 | > 100 | > 100 | > 100
20 | CN(C)c1nc(=NCc2ccccn2)ss1 | > 10 | > 10 | > 10 | > 10 | > 10 | > 5.57 | > 10 | > 8.91 | > 10 | > 10 | > 10 | > 10 | > 10 | > 10
21 | COc1cc(/C=C/C(=O)O)ccc1OS(=O)(=O)O | > 100 | > 100 | > 100 | > 100 | > 100 | > 100 | > 100 | > 100 | > 100 | > 100 | > 100 | > 100 | > 100 | > 100
22 | O=C(NCCCNCCCCNCCCNC(=O)C(F)(F)F)C(F)(F)F | > 100 | > 100 | > 100 | > 100 | > 100 | > 100 | > 100 | > 100 | > 100 | > 100 | > 100 | > 100 | > 100 | > 100
23 | COn1cc(CO)c2ccccc21 | > 100 | > 100 | > 100 | > 100 | > 100 | > 100 | > 100 | > 100 | > 100 | > 100 | > 100 | > 100 | > 100 | > 100
24 | O=S1(=O)c2ccccc2NC(=S)N1c1ccccc1 | > 100 | > 100 | > 100 | > 100 | > 100 | > 100 | > 100 | > 100 | > 80.9 | > 100 | > 100 | > 100 | > 100 | > 100
25 | Cc1ccc2c(c1)C(=O)/C(=C\c1ccc(Cl)cc1)CCS2(=O)=O | 14 | > 47.2 | 7.71 | > 31.5 | 4.81 | 3.49 | 8.37 | 6.42 | > 36.5 | 5.39 | 3.51 | 12.1 | 39.1 | 25.3
26 | OCC1OC(O[C@H]2CN3[C@H](O)[C@@H](O)[C@H](O)[C@H]3C2O)C(O)C(O)C1O (some centres not stated) | > 100 | > 100 | > 100 | > 100 | > 100 | > 100 | > 100 | > 100 | > 100 | > 100 | > 100 | > 100 | > 100 | > 100
27 | Clc1cccc(C2ON=C(c3ccccc3)N2C23CC4CC(CC(C4)C2)C3)c1Cl (configuration not stated) | > 10 | > 10 | > 10 | > 10 | > 10 | > 10 | > 10 | > 10 | > 10 | > 10 | > 10 | > 10 | > 10 | > 10
28 | CC1(C)[C@@H]2C[C@H]1c1cnc(-c3ccccn3)cc1[C@H]2C(O)[C@@H]1c2cc(-c3ccccn3)ncc2[C@H]2C[C@@H]1C2(C)C (some centres not stated) | 13.5 | 5.58 | 24.7 | 37.3 | 1.93 | 4.69 | 1.89 | 21.6 | 11 | 3.1 | 5.34 | 47.1 | 11 | 13.3
